Tests used:
[1] = system: antibodies in sera from SARS patients (sera 1a, 1b, 2, 6, 37, 62, London, SARS-yellow, SARS-green); type: binding, human; parameters: Binding of serum 6 to linear peptides of protein X1 of SARS-CoV Urbani / Binding of serum 37 to linear peptides of protein X1 of SARS-CoV Urbani / Binding of serum 6 to looped/cyclic peptide (PEPSCAN-ELISA) / Binding of serum 37 to looped/cyclic peptide (PEPSCAN-ELISA) / Binding of serum 37 to looped/cyclic peptides of protein X1 of SARS-CoV Urbani / Binding of serum 6 to linear peptides of protein X2 / Binding of serum 37 to linear peptides of protein X2 / Binding of serum 37 to looped/cyclic peptides of protein X2 of SARS-CoV Urbani / Binding of serum 6 to linear peptides of protein M of SARS-CoV Urbani / Binding of serum 37 to linear peptides of protein M of SARS-CoV Urbani / Binding of serum 6 to looped/cyclic peptides of protein M of SARS-CoV Urbani / Binding of serum 37 to looped/cyclic peptides of protein M of SARS-CoV Urbani / Binding of serum 6 to linear peptides of protein X3 of SARS-CoV Urbani / Binding of serum 37 to linear peptides of protein X3 of SARS-CoV Urbani / Binding of serum 37 to looped/cyclic peptides of protein X3 of SARS-CoV Urbani / Binding of serum 6 to linear peptides of protein X4 of SARS-CoV Urbani / Binding of serum 37 to linear peptides of protein X4 of SARS-CoV Urbani / Binding of serum 37 to looped/cyclic peptides of protein X4 of SARS-CoV Urbani / Binding of serum 6 to linear peptides of protein X5 of SARS-CoV Urbani / Binding of serum 37 to linear peptides of protein X5 of SARS-CoV Urbani / Binding of serum 37 to looped/cyclic peptides of protein X5 of SARS-CoV Urbani / Binding of serum 6 to linear peptides of protein N of SARS-CoV Urbani / Binding of serum 37 to linear peptides of protein N of SARS-CoV Urbani / Binding of serum 6 to linear peptide (PEPSCAN-ELISA) / Binding of serum 1a to looped/cyclic peptides of protein N of SARS-CoV Urbani / Binding of serum 1b to looped/cyclic peptides of protein N of SARS-CoV Urbani / Binding of serum 2 to looped/cyclic peptides of protein N of SARS-CoV Urbani / Binding of serum 6 to looped/cyclic peptides of protein N of SARS-CoV Urbani / Binding of serum 37 to looped/cyclic peptides of protein N of SARS-CoV Urbani / Binding of serum 62 to looped/cyclic peptides of protein N of SARS-CoV Urbani / Binding of serum London to looped/cyclic peptides of protein N of SARS-CoV Urbani / Binding of serum SARS-green to looped/cyclic peptides of protein N of SARS-CoV Urbani: unit not given here
[2] = system: rabbit serum obtained by immunizing a rabbit with the SARS-CoV strain Frankfurt 1; type: binding; parameters: Binding of a rabbit serum to linear peptides / Binding of a rabbit serum to looped peptides / Rabbit serum linear peptides / Rabbit serum looped peptides / Binding of a rabbit serum to linear peptides of protein N of SARS-CoV Urbani (Rabbit serum linear peptides) / Binding of a rabbit serum to looped/cyclic peptides of protein N of SARS-CoV Urbani (Rabbit serum looped peptides): unit not given here
[3] = system: control sera (pooled serum of ten healthy LUMC hospital workers; commercial negative donor pooled serum from the Dutch bloodbank); type: binding, human

| Sequence | Binding of serum 1a to linear peptides of protein X2 [1] | Binding of serum 1a to looped/cyclic peptides of protein X2 of SARS-CoV Urbani [1] | Binding of serum 1b to linear peptides of protein X2 [1] | Binding of serum 1b to looped/cyclic peptides of protein X2 of SARS-CoV Urbani [1] | Binding of serum 2 to linear peptides of protein X2 [1] | Binding of serum 2 to looped/cyclic peptides of protein X2 of SARS-CoV Urbani [1] | Binding of serum 6 to linear peptides of protein X2 [1] | Binding of serum 6 to looped/cyclic peptides of protein X2 of SARS-CoV Urbani [1] | Binding of serum 37 to linear peptides of protein X2 [1] | Binding of serum 37 to looped/cyclic peptides of protein X2 of SARS-CoV Urbani [1] | Binding of serum 62 to linear peptides of protein X2 [1] | Binding of serum 62 to looped/cyclic peptides of protein X2 of SARS-CoV Urbani [1] | Binding of serum London to linear peptides of protein X2 [1] | Binding of serum London to looped/cyclic peptides of protein X2 of SARS-CoV Urbani [1] | Binding of serum SARS-green to linear peptides of protein X2 [1] | Binding of serum SARS-green to looped/cyclic peptides of protein X2 of SARS-CoV Urbani [1] | Binding of serum SARS-yellow to linear peptides of protein X2 [1] | Binding of serum SARS-yellow to looped/cyclic peptides of protein X2 of SARS-CoV Urbani [1] | Binding of Control Serum Blood-Bank to Looped peptides [3] | Binding of Control serum Blood-bank to linear peptides [3] | also measured |
| --- | --- | --- | --- | --- | --- | --- | --- | --- | --- | --- | --- | --- | --- | --- | --- | --- | --- | --- | --- | --- | --- |
| TAFQHQNSKKTTKLV | 0.7 | 0.3 | 0.5 | 0.3 | 0.5 | 0.2 | 0.7 | 0.3 | 0.7 | 0.2 | 0.4 | 0.4 | 0.4 | 0.2 | 0.1 | 0.1 | 0.8 | 0.3 | 0.4 | 0.6 | Recognition of the peptide by the rabbit serum [2]: recognized; Binding of Control serum LUMC to linear peptides [3]: 0.9; Binding of Control serum LUMC to looped peptides [3]: 0.4 |
| TALQELLIQQWIQFM | 0.8 | 0.7 | 0.6 | 0.5 | 0.3 | 0.4 | 0.2 | 0.3 | 0.5 | 0.5 | 0.5 | 0.7 | 0.4 | 0.2 | 0.5 | 0.5 | 0.4 | 0.5 | 0.7 | 0.7 | Binding of a rabbit serum to linear peptides [2]: 0.4; Binding of a rabbit serum to looped peptides [2]: 0.4; Binding of Control serum LUMC to linear peptides [3]: 0.4; Binding of Control serum LUMC to looped peptides [3]: 0.7 |

— US20070128217A1 (priority 2003, published 2007)
